According to ChEMBL document CHEMBL4020729, “Synthesis and evaluation of anti-plasmodial and cytotoxic activities of epoxyazadiradione derivatives” (Eur J Med Chem, 2017):
Active and inactive are the calls of the source. No cut-off for these calls is given here.

Assays:
[1] = test system: IMR-32; test: Antiproliferative activity against human IMR32 cells after 48 hrs by SRB assay; format: functional, cell-based; details: IMR-32, 48 h
[2] = test system: Plasmodium falciparum; test: Anti-plasmodial activity against chloroquine-sensitive Plasmodium falciparum 3D7 infected in human erythrocytes after 50 hrs by SYBR green dye based fluorescence assay; format: functional, cell-based; details: 3D7, 50 h
[3] = test system: Plasmodium falciparum; test: Anti-plasmodial activity against chloroquine-resistant Plasmodium falciparum Dd2 infected in human erythrocytes after 50 hrs by SYBR green dye based fluorescence assay; format: functional, cell-based; details: Dd2, 50 h
[4] = test system: MDA-MB-231; test: Antiproliferative activity against human MDA-MB-231 cells after 48 hrs by SRB assay; format: functional, cell-based; details: MDA-MB-231, 48 h
[5] = test system: SiHa; test: Antiproliferative activity against human SiHa cells after 48 hrs by SRB assay; format: functional, cell-based
[6] = test system: PANC-1; test: Antiproliferative activity against human PANC1 cells after 48 hrs by SRB assay; format: functional, cell-based; details: PANC-1, 48 h
[7] = test system: Plasmodium berghei; test: Anti-plasmodial activity against Plasmodium berghei ANKA infected in BALB/c mouse at 50 mg/kg, ip assessed as reduction in parasitemia administered once per day for 4 days by Giemsa staining based light microscopic assay; format: functional, organism-based

In the case of `CC1(C)C(=O)C=C[C@]2(C)[C@H]3CC[C@@]4(C)[C@H](c5ccoc5)C(=O)[C@H]5O[C@]54[C@]3(C)C(=O)C[C@@H]12`, the IC50 [1] is reported as > 100 µM, the IC50 [2] is reported as 12.9 µM and the IC50 [3] is reported as 20 µM. The IC50 [4] was 18 µM, the IC50 [5] was > 100 µM and the IC50 [6] was > 100 µM.
`COc1cc(-n2cc(CO/N=C3/[C@H]4O[C@]45[C@@]4(C)[C@H](CC[C@@]5(C)[C@@H]3c3ccoc3)[C@@]3(C)C=CC(=O)C(C)(C)[C@@H]3C[C@H]4OC(C)=O)nn2)c(OC)cc1Cl` was tested, and the IC50 [1] was > 100 µM, the IC50 [2] was 1.5 µM and the IC50 [3] was 1.2 µM. For the same compound, the IC50 [4] was > 100 µM, the IC50 [5] was > 100 µM and the Activity [7] was “inactive”. The IC50 [6] was 35.1 µM.
For `CC(=O)O[C@@H]1C[C@H]2C(C)(C)C(=O)C=C[C@]2(C)[C@H]2CC[C@@]3(C)[C@H](c4ccoc4)/C(=N\OCc4cn(-c5ccc(Cl)c([N+](=O)[O-])c5)nn4)[C@H]4O[C@]43[C@@]21C`, the IC50 [1] was > 100 µM, the IC50 [2] was 2.8 µM and the IC50 [3] was 1.3 µM. For the same compound, the IC50 [4] was > 100 µM, the IC50 [5] was > 100 µM and the IC50 [6] was > 100 µM.
In the case of `CC(=O)O[C@@H]1C[C@H]2C(C)(C)C(=O)C=C[C@]2(C)[C@H]2CC[C@@]3(C)[C@H](c4ccoc4)/C(=N\O)[C@H]4O[C@]43[C@@]21C`, the IC50 [1] is reported as > 100 µM, the IC50 [2] is reported as 7.7 µM and the IC50 [3] is reported as 2.2 µM. For the same compound, the IC50 [4] was > 100 µM, the IC50 [5] was > 100 µM and the IC50 [6] was > 100 µM.
In the case of `CC1(C)C(=O)C=C[C@]2(C)[C@H]3CC[C@@]4(C)[C@H](c5ccoc5)C(=O)[C@H]5O[C@]54[C@]3(C)[C@H](OC(=O)c3ccc(F)c(Br)c3)C[C@@H]12`, the IC50 [1] is reported as > 100 µM, the IC50 [2] is reported as 6 µM and the IC50 [3] is reported as 5.5 µM. The IC50 [4] was > 100 µM, the IC50 [5] was > 100 µM and the IC50 [6] was > 100 µM.
In the case of `CC(=O)O[C@@H]1C[C@H]2C(C)(C)C(=O)C=C[C@]2(C)[C@H]2CC[C@@]3(C)[C@H](c4ccoc4)/C(=N\OCc4cn(CC(=O)Nc5ccc(C)cc5)nn4)[C@H]4O[C@]43[C@@]21C`, the IC50 [1] is reported as > 100 µM, the IC50 [2] is reported as 31 µM and the IC50 [3] is reported as 24 µM. For the same compound, the IC50 [4] was > 100 µM, the IC50 [5] was > 100 µM and the IC50 [6] was > 100 µM.
In the case of `CC1(C)C(=O)C=C[C@]2(C)[C@H]3CC[C@@]4(C)[C@H](c5ccoc5)C(=O)[C@H]5O[C@]54[C@]3(C)[C@H](O)C[C@@H]12`, the IC50 [2] is reported as 11.4 µM and the IC50 [3] is reported as 9.4 µM.
In the case of `CC(=O)O[C@@H]1C[C@H]2C(C)(C)C(=O)C=C[C@]2(C)[C@H]2CC[C@@]3(C)[C@H](c4ccoc4)/C(=N\OCc4cn(-c5cc([N+](=O)[O-])ccc5Cl)nn4)[C@H]4O[C@]43[C@@]21C`, the IC50 [1] is reported as > 100 µM, the IC50 [2] is reported as 5.1 µM and the IC50 [3] is reported as 3.8 µM. The IC50 [4] was > 100 µM, the IC50 [5] was > 100 µM and the IC50 [6] was > 100 µM.
For `CC(=O)O[C@@H]1C[C@H]2C(C)(C)C(=O)C=C[C@]2(C)[C@H]2CC[C@@]3(C)[C@H](c4ccoc4)/C(=N\OCc4cn(CC(=O)Nc5ccccc5)nn4)[C@H]4O[C@]43[C@@]21C`, the IC50 [1] was > 100 µM, the IC50 [2] was 13.8 µM and the IC50 [3] was 8.3 µM. The IC50 [4] was > 100 µM, the IC50 [5] was > 100 µM and the IC50 [6] was 25.4 µM.
`CC(=O)O[C@@H]1C[C@H]2C(C)(C)C(=O)C=C[C@]2(C)[C@H]2CC[C@@]3(C)[C@H](c4ccoc4)C(=O)[C@H]4O[C@]43[C@@]21C` [EPOXYAZADIRADIONE] was tested, and the IC50 [1] was > 100 µM, the IC50 [2] was 2.9 µM and the IC50 [3] was 2.9 µM. The IC50 [4] was > 100 µM, the IC50 [5] was > 100 µM and the IC50 [6] was > 100 µM.
With `CC(=O)O[C@@H]1C[C@H]2C(C)(C)C(=O)C=C[C@]2(C)[C@H]2CC[C@@]3(C)[C@H](c4ccoc4)/C(=N\OCc4cn(CC(=O)Nc5ccc(F)c(Cl)c5)nn4)[C@H]4O[C@]43[C@@]21C` the IC50 [1] was > 100 µM, the IC50 [2] was 32 µM and the IC50 [3] was 26 µM. For the same compound, the IC50 [4] was > 100 µM, the IC50 [5] was > 100 µM and the IC50 [6] was > 100 µM.
For `CCN1CCN(CC(=O)O[C@@H]2C[C@H]3C(C)(C)C(=O)C=C[C@]3(C)[C@H]3CC[C@@]4(C)[C@H](c5ccoc5)C(=O)[C@H]5O[C@]54[C@@]32C)CC1`, the IC50 [1] was > 100 µM, the IC50 [2] was 8.6 µM and the IC50 [3] was 6 µM. The IC50 [4] was > 100 µM, the IC50 [5] was > 100 µM and the IC50 [6] was > 100 µM.
For `C#CCO/N=C1/[C@H]2O[C@]23[C@@]2(C)[C@H](CC[C@@]3(C)[C@@H]1c1ccoc1)[C@@]1(C)C=CC(=O)C(C)(C)[C@@H]1C[C@H]2OC(C)=O`, the IC50 [1] was > 100 µM, the IC50 [2] was 7 µM and the IC50 [3] was 8.4 µM. For the same compound, the IC50 [4] was > 100 µM, the IC50 [5] was > 100 µM and the IC50 [6] was > 100 µM.
`CCC(=O)O/N=C1/[C@H]2O[C@]23[C@@]2(C)[C@H](CC[C@@]3(C)[C@@H]1c1ccoc1)[C@@]1(C)C=CC(=O)C(C)(C)[C@@H]1C[C@H]2OC(C)=O` was tested, and the IC50 [1] was > 100 µM, the IC50 [2] was 9.3 µM and the IC50 [4] was > 100 µM. For the same compound, the IC50 [5] was > 100 µM and the IC50 [6] was > 100 µM.
With `CC(=O)O[C@@H]1C[C@H]2C(C)(C)C(=O)C=C[C@]2(C)[C@H]2CC[C@@]3(C)[C@H](c4ccoc4)/C(=N\OCc4cn(-c5ccc(C(C)=O)cc5)nn4)[C@H]4O[C@]43[C@@]21C` the IC50 [1] was > 100 µM, the IC50 [2] was 3.1 µM and the IC50 [3] was 2.3 µM. The IC50 [4] was > 100 µM, the IC50 [5] was > 100 µM and the IC50 [6] was > 100 µM.
For `C=CCCC(=O)O/N=C1/[C@H]2O[C@]23[C@@]2(C)[C@H](CC[C@@]3(C)[C@@H]1c1ccoc1)[C@@]1(C)C=CC(=O)C(C)(C)[C@@H]1C[C@H]2OC(C)=O`, the IC50 [1] was > 100 µM, the IC50 [2] was 5.8 µM and the IC50 [4] was 55.8 µM. The IC50 [5] was > 100 µM and the IC50 [6] was > 100 µM.
For `CC(=O)O[C@@H]1C[C@H]2C(C)(C)C(=O)C=C[C@]2(C)[C@H]2CC[C@@]3(C)[C@H](c4ccoc4)/C(=N\OCc4cn(CC(=O)Nc5ccc(I)c(Cl)c5)nn4)[C@H]4O[C@]43[C@@]21C`, the IC50 [1] was > 100 µM, the IC50 [2] was 53.2 µM and the IC50 [3] was 87 µM. For the same compound, the IC50 [4] was > 100 µM, the IC50 [5] was > 100 µM and the IC50 [6] was > 100 µM.
In the case of `CC(=O)O[C@@H]1C[C@H]2C(C)(C)C(=O)C=C[C@]2(C)[C@H]2CC[C@@]3(C)[C@H](c4ccoc4)/C(=N\OCc4cn(-c5ccc(Cl)cc5)nn4)[C@H]4O[C@]43[C@@]21C`, the IC50 [1] is reported as > 100 µM, the IC50 [2] is reported as 2.9 µM and the IC50 [4] is reported as 21.3 µM. The IC50 [5] was > 100 µM and the IC50 [6] was > 100 µM.
With `CC(=O)O[C@@H]1C[C@H]2C(C)(C)/C(=N/O)C=C[C@]2(C)[C@H]2CC[C@@]3(C)[C@H](c4ccoc4)/C(=N\O)[C@H]4O[C@]43[C@@]21C` the IC50 [1] was > 100 µM, the IC50 [2] was 31.4 µM and the IC50 [4] was 29.1 µM. For the same compound, the IC50 [5] was > 100 µM and the IC50 [6] was > 100 µM.
